Consider 15 molecules from patent US8232297B2, “Sulphonylpyrroles as inhibitors of HDACs novel sulphonylpyrroles” (4SC AG, priority 2005, dated 2012).

SMILES strings stand for the structures.

The test system of series [1] is HeLa cervical carcinoma cells. Nature of the series: Cellular cytotoxicity assay (Alamar Blue), HeLa. It counts as cell-based. As to conditions: Homo sapiens, 72 h, printed only as range over the group of listed compounds. Here is the method:
The anti-proliferative activity of the histone deacetylase inhibitory compounds as described herein, was evaluated using the following cell lines: HeLa and HeLa-KB (cervical carcinoma), H460 (non small cell lung cancer), A549 (non-small cell lung cancer), MCF7 (breast carcinoma), MCF10A (normal, non tumorigenic breast epithelial), MDA-MB468 (breast carcinoma), MDA-MB435 (breast carcinoma), MDA-MB231 (breast carcinoma), SKBR-3 (breast carcinoma), SKOV-3 (ovarial carcinoma), A-2780 (ovarial carcinoma), RKO (colon carcinoma), HCT-15 (colon carcinoma), HCT-116 (colon carcinoma), PC3 (prostate carcinoma), BPH1 (benign prostate hyperplasia), AsPC1 (pancreatic carcinoma), Cal27 (tongue carcinoma), A-431 (vulva carcinoma), Hec1A (endometrial carcinoma), Saos-2 (osteosarcoma), U87MG (glioblastoma), WM266-4 (melanoma), K562 (chronic myeloid carcinoma), EOL1 (acute hypereosinophilic myeloid leukemia), CCRF-CEM and CCRF-CEM VCR1000 (acute lymphoblastic leukemia sensitive and resistant towards Vincristine). For quantification of cellular proliferation/living cells the Alamar Blue (Resazurin) cell viability assay was applied (O'Brien et al. Eur J Biochem 267, 5421-5426, 2000). […] After 4 hours incubation at 37° C. the fluorescence was measured at an extinction of 544 nm and an emission of 590 nm. […] Viabilities were expressed as % values. […]

The test system of another series is A549 cell line. Nature of the series: Combination experiment with Trail. Type of series: cell-based. The settings on record: example at about its IC50 with Trail, 4 h pretreatment, 72 h total. Here is the method: A549 non-small cell lung cancer, MDA-MB468 breast cancer and […] colorectal cancer cell lines were pretreated with the examples for 4 h before adding the chemotherapeutic agents or Trail and further incubation for 72 h total. The IC50 values of these combinations were determined from concentration-effect curves and compared to IC50 values of cell treated with the anti-cancer agent only.

In series [2] the test system is RKO proliferating colon carcinoma cells. In words: Cell-cycle dependent cytotoxicity, RKO exop21 system, proliferating. Type of series: cell-based. The settings on record: 72 h, given only as range over the listed compounds. The protocol: (§1) For determination of cell-cycle dependent cytotoxicity, the RKO exop21 cell system was applied (Schmidt et al. Oncogene 19: 2423-2429, 2000). Briefly, RKO cells with/without p21^waf1 expression (2×10^4 cells/well induced, 6×10^3 cells/well not induced) were treated with the examples for 72 h and metabolic activity quantified as described before. The expression of p21^waf1 was induced by treatment with Pronasterone A, causing a complete proliferation arrest of RKO cells in the G1 and G2 phases of the cell division cycle.

For series [3], the system named is RKO arrested (p21waf1 expressed) colon carcinoma cells. In words: Cell-cycle dependent cytotoxicity, RKO exop21 system, arrested. Type of series: cell-based. The settings on record: 72 h, p21waf1 induced, given only as range over the listed compounds. The protocol: as §1

As usually defined, the melting point is the temperature, or range, at which the solid turns liquid. On to `O=C(/C=C/c1ccn(S(=O)(=O)c2cccc(-c3ccccc3)c2)c1)NO` [Compound 23, (E)-3-[1-(Biphenyl-3-sulfonyl)-1H-pyrrol-3-yl]-N-hydroxy-acrylamide], for which the melting point fell in the range of 114 to 159.4 °C.
A word on the IC50: it is the point on the concentration scale where inhibition reaches its midpoint. A lower IC50 goes with greater potency. In series [1], `Cc1ccc(S(=O)(=O)n2ccc(C=CC(=O)NO)c2)cc1` [Compound 1, (E)-N-Hydroxy-3-[1-(toluene-4-sulfonyl)-1-H-pyrrol-3-yl]-acrylamide] came in with an IC50 of 800 to 21600 nM.
For `CN(CCc1cc2ccccc2[nH]1)Cc1ccc(S(=O)(=O)n2ccc(/C=C/C(=O)NO)c2)cc1` [Compound 9, (E)-N-Hydroxy-3-(1-[4-(([2-(1H-indol-2-yl)-ethyl]-methyl-amino)-methyl)-benzenesulfonyl]-1H-pyrrol-3-yl)-acrylamide], the “Effect of combination with Trail” value in the series on A549 cell line is “synergism is highly likely”. The IC50 in series [2] is 150 to 5100 nM; in series [3] it was 450 to 15000 nM.
Molecule `O=C(/C=C/c1ccn(S(=O)(=O)c2ccc(-c3cn[nH]c3)cc2)c1)NO` [Compound 19, (E)-N-Hydroxy-3-{1-[4-(1H-pyrazol-4-yl)-benzenesulfonyl]-1H-pyrrol-3-yl}-acrylamide] registered a melting point of 203.8 to 211.9 °C.
Take `CN(C)Cc1ccc(S(=O)(=O)n2ccc(/C=C/C(=O)NO)c2)cc1` [Compound 10, (E)-3-[1-(4-Dimethylaminomethyl-benzenesulfonyl)-1H-pyrrol-3-yl]-N-hydroxy-acrylamide]: the “Effect of combination with Trail” value in the series with A549 cell line was “synergism is highly likely”. Also, the IC50 fell in the range of 150 to 5100 nM in series [2] and 450 to 15000 nM in series [3].
`O=C(/C=C/c1ccn(S(=O)(=O)c2ccc(-n3cccn3)cc2)c1)NO` [Compound 25, (E)-N-Hydroxy-3-[1-(4-pyrazol-1-yl-benzenesulfonyl)-1H-pyrrol-3-yl]-acrylamide] came in with a melting point of 160.7 to 166.6 °C.
On the same count and under the same terms, for `O=C(/C=C/c1ccn(S(=O)(=O)c2ccc(-c3ccncc3)cc2)c1)NO` [Compound 18, (E)-N-Hydroxy-3-[1-(4-pyridin-4-yl-benzenesulfonyl)-1H-pyrrol-3-yl]-acrylamide] the value was 219.3 to 221.4 °C; for `NCc1ccc(S(=O)(=O)n2ccc(/C=C/C(=O)NO)c2)cc1` [Compound 17, (E)-3-[1-(4-Aminomethyl-benzenesulfonyl)-1H-pyrrol-3-yl]-N-hydroxy-acrylamide], 227 to 228.6 °C.
On to `O=C(/C=C/c1ccn(S(=O)(=O)c2ccc(-c3ccccn3)s2)c1)NO` [Compound 24, (E)-N-Hydroxy-3-[1-(5-pyridin-2-yl-thiophene-2-sulfonyl)-1H-pyrrol-3-yl]-acrylamide], for which, in the series on A549 cell line, the “Effect of combination with Trail” value was “synergism is highly likely”. Besides, the IC50 in series [2] is 150 to 5100 nM; in series [3] it was 450 to 15000 nM.
For the molecule `O=C(/C=C/c1ccn(S(=O)(=O)c2ccc(-c3ccccc3)cc2)c1)NO` [Compound 3, (E)-3-[1-(Biphenyl-4-sulfonyl)-1H-pyrrol-3-yl]-N-hydroxy-acrylamide], the “Effect of combination with Trail” value in the series on A549 cell line is on record as “synergism is highly likely”. The figures for the IC50 in series [2] and in series [3] were 150 to 5100 nM and 450 to 15000 nM, respectively.
As for `Nc1ccccc1NC(=O)/C=C/c1ccn(S(=O)(=O)c2ccc(-c3cn[nH]c3)cc2)c1` [Compound 22, (E)-N-(2-Amino-phenyl)-3-{1-[4-(1H-pyrazol-4-yl)-benzenesulfonyl]-1H-pyrrol-3-yl}-acrylamide], the melting point is 232.3 to 240.9 °C.
Still for that read-out and setting: for `O=C(/C=C/c1ccn(S(=O)(=O)c2ccc(CN3CCOCC3)cc2)c1)NO` [Compound 27, (E)-N-Hydroxy-3-[1-(4-morpholin-4-ylmethyl-benzenesulfonyl)-1H-pyrrol-3-yl]-acrylamide] the value was 168 to 170 °C; for `Nc1ccccc1NC(=O)/C=C/c1ccn(S(=O)(=O)c2ccc(-c3cccnc3)cc2)c1` [Compound 21, (E)-N-(2-Amino-phenyl)-3-[1-(4-pyridin-3-yl-benzenesulfonyl)-1H-pyrrol-3-yl]-acrylamide], 199.7 to 202.3 °C; for `Nc1ccccc1NC(=O)/C=C/c1ccn(S(=O)(=O)c2ccc(-c3ccccn3)s2)c1` [Compound 26, (E)-N-(2-Amino-phenyl)-3-[1-(5-pyridin-2-yl-thiophene-2-sulfonyl)-1H-pyrrol-3-yl]-acrylamide], 171.3 to 174.7 °C.
On the same count and under the same terms, for `Nc1ccccc1NC(=O)/C=C/c1ccn(S(=O)(=O)c2ccc(-c3ccncc3)cc2)c1` [Compound 20, (E)-N-(2-Amino-phenyl)-3-[1-(4-pyridin-4-yl-benzenesulfonyl)-1H-pyrrol-3-yl]-acrylamide] the value was 244.2 to 246.5 °C.
